For data set [1], the target named is T1, Non-receptor tyrosine-protein kinase TYK2 (Homo sapiens, UniProt P29597). In words: Inhibition of human TYK2 using fluorescence labeled peptide as substrate and using ATP at its Km level by microfluidic based mobility shift assay.
Data set [2] addresses T2, Tyrosine-protein kinase JAK1 (Homo sapiens, UniProt P23458). Nature of the data set: Inhibition of human JAK1 using fluorescence labeled peptide as substrate and using ATP at its Km level by microfluidic based mobility shift assay.
In data set [3] the target is T3, Tyrosine-protein kinase JAK2 (Homo sapiens, UniProt O60674). Nature of the data set: Inhibition of human JAK2 using fluorescence labeled peptide as substrate and using ATP at its Km level by microfluidic based mobility shift assay.
T3 sequence (O60674 whole entry): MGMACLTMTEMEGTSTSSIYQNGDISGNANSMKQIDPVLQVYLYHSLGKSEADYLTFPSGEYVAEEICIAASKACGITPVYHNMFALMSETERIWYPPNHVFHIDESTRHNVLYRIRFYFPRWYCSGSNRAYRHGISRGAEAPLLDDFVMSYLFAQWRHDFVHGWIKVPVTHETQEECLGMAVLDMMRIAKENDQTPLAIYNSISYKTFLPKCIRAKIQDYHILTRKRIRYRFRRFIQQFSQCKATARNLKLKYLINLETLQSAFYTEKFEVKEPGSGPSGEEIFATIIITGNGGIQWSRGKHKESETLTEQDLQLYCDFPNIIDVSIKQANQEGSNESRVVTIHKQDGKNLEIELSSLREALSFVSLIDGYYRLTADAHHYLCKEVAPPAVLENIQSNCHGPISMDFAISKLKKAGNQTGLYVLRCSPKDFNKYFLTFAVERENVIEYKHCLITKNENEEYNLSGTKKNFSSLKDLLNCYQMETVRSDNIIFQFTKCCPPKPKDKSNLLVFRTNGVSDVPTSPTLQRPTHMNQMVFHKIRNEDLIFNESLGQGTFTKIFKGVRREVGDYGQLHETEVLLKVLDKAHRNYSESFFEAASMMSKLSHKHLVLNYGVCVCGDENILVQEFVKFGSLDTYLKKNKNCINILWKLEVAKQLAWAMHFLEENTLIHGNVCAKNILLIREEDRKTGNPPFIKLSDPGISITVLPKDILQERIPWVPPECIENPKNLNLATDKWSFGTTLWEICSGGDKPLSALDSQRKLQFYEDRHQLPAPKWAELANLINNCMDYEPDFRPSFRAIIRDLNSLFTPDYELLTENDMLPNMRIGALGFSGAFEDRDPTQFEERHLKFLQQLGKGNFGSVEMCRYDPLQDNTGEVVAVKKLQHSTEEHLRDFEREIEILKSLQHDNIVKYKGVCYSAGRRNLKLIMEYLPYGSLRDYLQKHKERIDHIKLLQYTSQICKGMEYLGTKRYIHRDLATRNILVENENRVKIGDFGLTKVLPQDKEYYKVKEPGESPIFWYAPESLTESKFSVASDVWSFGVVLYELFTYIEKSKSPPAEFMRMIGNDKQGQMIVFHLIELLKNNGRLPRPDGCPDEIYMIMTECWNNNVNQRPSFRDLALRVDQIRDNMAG
Data set [4] addresses T4, Tyrosine-protein kinase JAK3 (Homo sapiens, UniProt P52333).
T4 sequence (P52333 whole entry): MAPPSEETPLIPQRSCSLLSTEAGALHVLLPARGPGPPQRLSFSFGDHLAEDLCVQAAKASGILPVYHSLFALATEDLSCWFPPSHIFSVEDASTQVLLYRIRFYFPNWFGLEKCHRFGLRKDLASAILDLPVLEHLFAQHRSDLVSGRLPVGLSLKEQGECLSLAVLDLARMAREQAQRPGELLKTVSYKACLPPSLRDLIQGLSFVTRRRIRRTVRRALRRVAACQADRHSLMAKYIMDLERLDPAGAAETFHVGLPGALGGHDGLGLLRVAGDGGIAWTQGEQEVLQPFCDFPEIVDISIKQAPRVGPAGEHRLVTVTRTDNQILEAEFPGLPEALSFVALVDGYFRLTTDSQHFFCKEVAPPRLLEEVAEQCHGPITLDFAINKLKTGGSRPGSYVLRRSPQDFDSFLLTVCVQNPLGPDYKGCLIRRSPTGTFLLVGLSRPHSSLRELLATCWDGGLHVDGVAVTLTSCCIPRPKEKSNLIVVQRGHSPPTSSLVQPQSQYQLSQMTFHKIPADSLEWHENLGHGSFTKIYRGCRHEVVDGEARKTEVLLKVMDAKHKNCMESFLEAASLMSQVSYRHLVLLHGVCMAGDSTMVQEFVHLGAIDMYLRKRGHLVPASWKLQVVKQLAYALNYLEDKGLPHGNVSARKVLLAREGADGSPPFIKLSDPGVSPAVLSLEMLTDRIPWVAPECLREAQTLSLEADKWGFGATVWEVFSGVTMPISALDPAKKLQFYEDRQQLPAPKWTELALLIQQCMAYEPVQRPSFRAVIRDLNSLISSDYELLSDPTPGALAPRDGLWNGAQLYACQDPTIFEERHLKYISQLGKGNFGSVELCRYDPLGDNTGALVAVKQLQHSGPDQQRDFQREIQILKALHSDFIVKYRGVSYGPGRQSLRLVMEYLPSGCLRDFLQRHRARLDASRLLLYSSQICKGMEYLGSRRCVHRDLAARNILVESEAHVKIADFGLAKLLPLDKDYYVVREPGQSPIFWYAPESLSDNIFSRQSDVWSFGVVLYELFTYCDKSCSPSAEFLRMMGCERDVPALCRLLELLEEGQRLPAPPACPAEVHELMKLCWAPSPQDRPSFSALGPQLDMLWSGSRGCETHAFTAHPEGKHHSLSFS
Nature of the data set: Inhibition of human JAK3 using fluorescence labeled peptide as substrate and using ATP at its Km level by microfluidic based mobility shift assay.

Data set [5] in a line: physchem. The following applies: octanol/water phosphate buffer, pH 7.4.
In data set [6] the target is T3, Tyrosine-protein kinase JAK2.
Data set [7] addresses T4, Tyrosine-protein kinase JAK3.
Data set [8] addresses T1, Non-receptor tyrosine-protein kinase TYK2.
The target of data set [9] is T2, Tyrosine-protein kinase JAK1.
The nature of data set [10]: Passive apparent permeability from apical to basolateral side in RRCK cells. In kind it is ADME, cell-based, Canis lupus familiaris, MDCKII-LE. The following applies: dog, MDCK.
Data set [11] has as its target T5, JAK1/TYK2 (Homo sapiens, UniProt P23458+P29597). Nature of the data set: Inhibition of JAK1/TYK2 signaling pathway in human lymphocytes of whole blood assessed as reduction in IFN-alpha induced STAT3 phosphorylation preincubated for 45 mins followed by IFN-alpha addition and measured measured after 15 mins by FACS assay. In kind it is cell-based. On the technique in general: Flow cytometry measures light scatter and fluorescence of single cells or particles in a stream.

The target in data set [12] is T3, Tyrosine-protein kinase JAK2. The source holds these as a separate data set.
For data set [13], the target named is T5, JAK1/TYK2.
Data set [14] concerns the target T3, Tyrosine-protein kinase JAK2. This is another data set of the same source.

Where only a bound is given, the exact number is not on record here.

T2 sequence (P23458 whole entry): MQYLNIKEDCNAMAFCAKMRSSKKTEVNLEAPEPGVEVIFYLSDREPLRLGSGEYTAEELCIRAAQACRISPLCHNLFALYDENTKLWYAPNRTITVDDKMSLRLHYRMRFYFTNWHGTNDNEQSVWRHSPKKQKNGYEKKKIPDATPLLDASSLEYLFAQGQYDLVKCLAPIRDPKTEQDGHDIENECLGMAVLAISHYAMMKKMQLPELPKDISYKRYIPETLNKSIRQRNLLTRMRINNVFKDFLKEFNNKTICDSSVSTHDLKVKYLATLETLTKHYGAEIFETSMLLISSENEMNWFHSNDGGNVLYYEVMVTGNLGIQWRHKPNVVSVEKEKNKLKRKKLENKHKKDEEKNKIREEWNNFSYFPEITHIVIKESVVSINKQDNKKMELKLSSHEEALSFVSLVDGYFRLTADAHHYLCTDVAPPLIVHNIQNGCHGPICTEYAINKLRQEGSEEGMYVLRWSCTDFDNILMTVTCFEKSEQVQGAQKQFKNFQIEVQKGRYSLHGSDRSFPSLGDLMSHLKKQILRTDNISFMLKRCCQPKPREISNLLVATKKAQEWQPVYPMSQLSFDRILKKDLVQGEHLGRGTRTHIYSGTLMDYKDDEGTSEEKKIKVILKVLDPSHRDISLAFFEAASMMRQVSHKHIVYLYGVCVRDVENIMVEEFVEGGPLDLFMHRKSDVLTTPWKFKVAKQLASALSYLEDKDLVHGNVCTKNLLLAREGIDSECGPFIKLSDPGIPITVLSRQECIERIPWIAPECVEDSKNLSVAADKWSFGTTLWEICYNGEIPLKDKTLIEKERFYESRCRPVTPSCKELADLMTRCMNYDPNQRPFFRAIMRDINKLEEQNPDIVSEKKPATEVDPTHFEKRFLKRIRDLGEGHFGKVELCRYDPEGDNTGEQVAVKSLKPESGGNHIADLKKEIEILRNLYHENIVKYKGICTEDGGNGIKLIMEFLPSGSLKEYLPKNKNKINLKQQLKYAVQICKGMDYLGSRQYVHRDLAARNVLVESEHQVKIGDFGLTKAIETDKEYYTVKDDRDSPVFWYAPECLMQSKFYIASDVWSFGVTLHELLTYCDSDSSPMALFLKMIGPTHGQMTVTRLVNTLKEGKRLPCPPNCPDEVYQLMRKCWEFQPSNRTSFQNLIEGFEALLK
T5 sequence (P23458 whole entry): as above
T5 sequence (P29597 whole entry): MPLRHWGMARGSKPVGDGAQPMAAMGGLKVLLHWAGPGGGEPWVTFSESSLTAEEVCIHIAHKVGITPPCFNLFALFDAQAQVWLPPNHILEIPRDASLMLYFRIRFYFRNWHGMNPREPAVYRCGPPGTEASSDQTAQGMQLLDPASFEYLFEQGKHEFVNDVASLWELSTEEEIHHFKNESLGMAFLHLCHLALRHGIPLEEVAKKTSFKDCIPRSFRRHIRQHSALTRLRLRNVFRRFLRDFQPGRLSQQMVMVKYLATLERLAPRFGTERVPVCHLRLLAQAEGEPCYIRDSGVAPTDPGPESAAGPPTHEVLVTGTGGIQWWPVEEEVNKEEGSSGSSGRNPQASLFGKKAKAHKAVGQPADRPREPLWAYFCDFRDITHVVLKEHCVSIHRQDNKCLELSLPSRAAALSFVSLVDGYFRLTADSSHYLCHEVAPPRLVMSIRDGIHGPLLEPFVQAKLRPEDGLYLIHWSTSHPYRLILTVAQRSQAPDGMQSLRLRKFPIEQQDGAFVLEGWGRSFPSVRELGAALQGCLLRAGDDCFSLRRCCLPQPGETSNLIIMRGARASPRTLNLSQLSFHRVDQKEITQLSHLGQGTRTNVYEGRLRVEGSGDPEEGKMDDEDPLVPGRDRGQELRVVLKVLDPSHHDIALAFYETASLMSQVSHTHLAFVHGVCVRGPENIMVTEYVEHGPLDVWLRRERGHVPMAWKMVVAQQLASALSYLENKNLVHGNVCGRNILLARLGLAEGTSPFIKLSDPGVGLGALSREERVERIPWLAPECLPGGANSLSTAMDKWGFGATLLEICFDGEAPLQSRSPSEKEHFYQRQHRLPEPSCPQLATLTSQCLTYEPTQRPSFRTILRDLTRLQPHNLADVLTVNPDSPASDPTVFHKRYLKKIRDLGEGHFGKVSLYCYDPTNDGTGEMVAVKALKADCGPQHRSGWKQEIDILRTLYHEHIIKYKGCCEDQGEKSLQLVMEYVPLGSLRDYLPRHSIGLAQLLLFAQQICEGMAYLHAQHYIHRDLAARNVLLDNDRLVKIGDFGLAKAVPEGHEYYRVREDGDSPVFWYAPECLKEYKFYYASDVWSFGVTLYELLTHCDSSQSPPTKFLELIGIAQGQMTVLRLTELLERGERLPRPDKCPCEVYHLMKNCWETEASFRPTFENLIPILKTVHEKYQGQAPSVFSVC
T1 sequence (P29597 whole entry): as above

For the molecule `CCNC(=O)c1ccc(Nc2nccc(N3C[C@H]4C[C@@H]3CN4C(=O)CC#N)n2)cc1`, the IC50 in data set [1] was 2.69 µM; in data set [2] it was 7.18 µM; in data set [3], above 4.22 µM; in data set [4] it was above 10 µM. For the same molecule, the logD in data set [5] was 0.9.

On to `CCNC(=O)c1ccc(Nc2nccc(N3CCN(C(=O)CC#N)CC3)n2)cc1`, for which the IC50 came to 0.368 µM in data set [1], 3.06 µM in [2], 1.08 µM in data set [3] and 8.74 µM in [4].

For the molecule `CCNC(=O)c1ccc(Nc2nccc(N3C[C@@H]4CC[C@H]3CN4C(=O)C3CC3)n2)cc1`, the IC50 in data set [6] is 2.78 µM; in [7], above 10 µM; in data set [8], 0.148 µM; in [9], 0.748 µM. In addition, the logD in data set [5] was 2.16.

`CCNC(=O)c1ccc(Nc2nccc(N3C[C@@H]4C[C@H]3CN4C(=O)CC#N)n2)cc1`: the IC50 is 0.023 µM in data set [1]; 0.358 µM in [2]; 0.366 µM in [3]; above 4.95 µM in [4]; above 9.97 µM in [6]; above 10 µM in [7]. The IC50 is 0.774 µM in data set [8] and 3.71 µM in data set [9]. This molecule came in with a logD in data set [5] of 0.9.

The molecule `CCNC(=O)c1ccc(Nc2nccc(N3C[C@H]4C[C@@H](C3)N4C(=O)C3CC3)n2)cc1` yielded a logD in data set [5] of 2.15.

On to `CCNC(=O)c1ccc(Nc2nccc(N3C[C@@H]4C[C@H]3CN4C(=O)C3CC3)n2)cc1`, for which the IC50 in data set [6] is above 10 µM; in data set [7], above 10 µM; in data set [8] it was 1.74 µM; in data set [9], above 9.52 µM. The molecule also came in with a logD in data set [5] of 1.96.

As for `CCNC(=O)c1ncc(Nc2ncc(F)c(N3CC4CC[C@H](C3)N4C(=O)C3CC3)n2)cc1C` (single isomer, unassigned), the Papp A→B in data set [10] was 5.6 to 18.8 ×10⁻⁶ cm/s. The IC50 in data set [11] was found to be 0.385 µM; in data set [12], 12.2 µM; in [6] it was 0.692 µM; in data set [7] it was 4.96 µM; in [8], 0.048 µM; in data set [9], 0.234 µM. Further, the fIC50 in data set [13] is 91 nM; in [14], 11 nM. This molecule also returned a logD in data set [5] of 3.21.

Turning to `CCNC(=O)c1ccc(Nc2ncc(F)c(N3CC4CC[C@H](C3)N4C(=O)C3CC3)n2)nc1` (single isomer, unassigned), in data set [10], the Papp A→B lay within 5.6 to 18.8 ×10⁻⁶ cm/s. The IC50 in data set [6] is above 10 µM; in data set [7], above 10 µM; in data set [8], 7.2 µM; in data set [9], above 10 µM. The molecule further registered a logD in data set [5] of 2.71.

`Cn1cc(Nc2nccc(N3CC4CC[C@H](C3)N4C(=O)[C@H]3CC3(F)F)n2)cn1` (single isomer, unassigned) yielded a logD in [5] of 1.55.

`CCNC(=O)N1C2CC[C@@H]1CN(c1ccnc(Nc3cnn(C)c3)n1)C2` (single isomer, unassigned): the fIC50 was 60 nM in data set [13] and 14 nM in [14]. The logD in data set [5] was determined as 1.44.

Regarding `Cn1cc(Nc2nccc(N3CC4CC[C@H](C3)N4C(=O)NCC#N)n2)cn1` (single isomer, unassigned), the Papp A→B in data set [10] is 0.6 ×10⁻⁶ cm/s. Moreover, the fIC50 was 73 nM in [13] and 28 nM in [14]. In data set [5], the logD came out at 0.97.

Turning to `Cn1cc(Nc2nccc(N3CC4CC[C@H](C3)N4C(=O)NCC(F)(F)F)n2)cn1` (single isomer, unassigned), the IC50 in data set [11] came to 0.051 µM; in data set [12], 1.16 µM; in data set [6], 0.146 µM; in data set [7] it was 6.87 µM; in data set [8], 0.028 µM; in data set [9], 0.014 µM. Besides, the fIC50 in data set [13] turned out to be 26 nM; in [14], 15 nM. Further, the logD in data set [5] came out at 1.72.

With `O=C(C1CC1)N1C2CC[C@@H]1CN(c1nc(Nc3cnn(CCO)c3)ncc1F)C2` (single isomer, unassigned), the Papp A→B in data set [10] lay in the range of 5.6 to 18.8 ×10⁻⁶ cm/s. Also, the fIC50 in [13] came to 70 nM; in data set [14] it was 10 nM. In data set [5], this molecule showed a logD of 1.78.

In the case of `CCNC(=O)c1ccc(Nc2ncc(F)c(N3CC4CC[C@H](C3)N4C(=O)C3CC3)n2)cc1` (single isomer, unassigned), in data set [5], the logD worked out at 2.88.

For `Cn1cc(Nc2nccc(N3CC4CC[C@H](C3)N4C(=O)C3CC3)n2)cn1` (single isomer, unassigned), the fIC50 in data set [13] came out at 91 nM; in data set [14], 11 nM. The logD in data set [5] worked out at 1.52.

For the molecule `Cn1cc(Nc2ncc(F)c(N3CC4CC[C@H](C3)N4C(=O)C3CC3)n2)cn1` (single isomer, unassigned), in [10], the Papp A→B is 5.6 to 18.8 ×10⁻⁶ cm/s. Also, the IC50 in data set [11] came to 0.144 µM; in [12] it was 6.28 µM; in data set [6], 0.488 µM; in data set [7] it was 2.88 µM; in data set [8], 0.053 µM; in data set [9], 0.076 µM. Further, the fIC50 was found to be 84 nM in [13] and 8 nM in data set [14]. The logD in data set [5] was found to be 2.13.

`CCNC(=O)c1ccc(Nc2nccc(N3CC4CC[C@H](C3)N4C(=O)C3CC3)n2)cc1` (single isomer, unassigned) yielded a logD in [5] of 1.86.

As a reminder, the IC50 is the concentration needed to halve the response being measured. By logD is commonly meant lipophilicity at a set pH, counting ionised and neutral species. The Papp A→B is how fast a substance crosses the layer from the apical side.

The record behind these values is ChEMBL document CHEMBL4411260, “Dual Inhibition of TYK2 and JAK1 for the Treatment of Autoimmune Diseases: Discovery of (( S)-2,2-Difluorocyclopropyl)((1 R,5 S)-3-(2-((1-methyl-1 H-pyrazol-4-yl)amino)pyrimidin-4-yl)-3,8-diazabicyclo[3.2.1]octan-8-yl)methanone (PF-06700841)” (J Med Chem, 2018).
